Test system: 931267-113-T-J1-PDC multicell spheroid viability
Experiment: Anticancer human tumor 931267-113-T-J1-PDC patient-derived colon adenocarcinoma cell line growth inhibition [PI3K]
Settings: for IC50: curve of first compound; for viability, T/C: stronger effect = lower value
How it was run: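 Spheroid viability read-out. Co-cultures contained the tumor line plus HUVEC and human MSCs. Each agent was paired with a PI3K inhibitor (inavolisib, alpelisib, duvelisib, copanlisib) across half-log dilutions starting at clinical Cmax, or at 10 microM when Cmax was unknown.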

[1] = second compound 0.00316 µM, first compound 0.0316 µM
[2] = second compound 0.00316 µM, first compound 0.1 µM
[3] = second compound 0.00316 µM, first compound 0.316 µM
[4] = second compound 0.00316 µM, first compound 1 µM
[5] = second compound 0.00316 µM, first compound 3.16 µM
[6] = second compound 0.00316 µM, first compound 10 µM
[7] = second compound 0.01 µM, first compound 0.0316 µM
[8] = second compound 0.01 µM, first compound 0.1 µM
[9] = second compound 0.01 µM, first compound 0.316 µM
[10] = second compound 0.01 µM, first compound 1 µM
[11] = second compound 0.01 µM, first compound 3.16 µM
[12] = second compound 0.01 µM, first compound 10 µM
[13] = second compound 0.0316 µM, first compound 0.0316 µM
[14] = second compound 0.0316 µM, first compound 0.1 µM
[15] = second compound 0.0316 µM, first compound 0.316 µM
[16] = second compound 0.0316 µM, first compound 1 µM
[17] = second compound 0.0316 µM, first compound 3.16 µM
[18] = second compound 0.0316 µM, first compound 10 µM
[19] = second compound 0.1 µM, first compound 0.0316 µM
[20] = second compound 0.1 µM, first compound 0.1 µM
[21] = second compound 0.1 µM, first compound 0.316 µM
[22] = second compound 0.1 µM, first compound 1 µM
[23] = second compound 0.1 µM, first compound 3.16 µM
[24] = second compound 0.1 µM, first compound 10 µM
[25] = second compound 0.316 µM, first compound 0.0316 µM
[26] = second compound 0.316 µM, first compound 0.1 µM
[27] = second compound 0.316 µM, first compound 0.316 µM
[28] = second compound 0.316 µM, first compound 1 µM
[29] = second compound 0.316 µM, first compound 3.16 µM
[30] = second compound 0.316 µM, first compound 10 µM
[31] = second compound 1 µM, first compound 0.0316 µM
[32] = second compound 1 µM, first compound 0.1 µM
[33] = second compound 1 µM, first compound 0.316 µM
[34] = second compound 1 µM, first compound 1 µM
[35] = second compound 1 µM, first compound 3.16 µM
[36] = second compound 1 µM, first compound 10 µM
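Note: viability read 7 days after compound addition.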

CC(C)NCC(C(=O)N1CCN(c2ncnc3c2C(C)CC3O)CC1)c1ccc(Cl)cc1 (stereo not drawn) + CC(Nc1ccc2c(c1)OCCn1cc(N3C(=O)OCC3C(F)F)nc1-2)C(N)=O
IC50 (second compound 0.00316 µM): > 10 µM
IC50 (second compound 0.01 µM): > 10 µM
IC50 (second compound 0.0316 µM): > 10 µM
IC50 (second compound 0.1 µM): > 10 µM
IC50 (second compound 0.316 µM): > 10 µM
IC50 (second compound 1 µM): > 10 µM
viability, T/C [1]: 91%
viability, T/C [2]: 90.8%
viability, T/C [3]: 92.9%
viability, T/C [4]: 95.5%
viability, T/C [5]: 86.8%
viability, T/C [6]: 67.3%
viability, T/C [7]: 102%
viability, T/C [8]: 94.3%
viability, T/C [9]: 97.2%
viability, T/C [10]: 95.2%
viability, T/C [11]: 83.5%
viability, T/C [12]: 69.8%
viability, T/C [13]: 103%
viability, T/C [14]: 105%
viability, T/C [15]: 99.2%
viability, T/C [16]: 94.8%
viability, T/C [17]: 96.4%
viability, T/C [18]: 69.9%
viability, T/C [19]: 101%
viability, T/C [20]: 95.7%
viability, T/C [21]: 97.9%
viability, T/C [22]: 96.2%
viability, T/C [23]: 84.2%
viability, T/C [24]: 64.7%
viability, T/C [25]: 85.3%
viability, T/C [26]: 84.5%
viability, T/C [27]: 83.7%
viability, T/C [28]: 85.4%
viability, T/C [29]: 80.5%
viability, T/C [30]: 66.7%
viability, T/C [31]: 73%
viability, T/C [32]: 75.4%
viability, T/C [33]: 72.1%
viability, T/C [34]: 76%
viability, T/C [35]: 82.9%
viability, T/C [36]: 59.9%

CCN1CCN(Cc2ccc(Nc3ncc(F)c(-c4cc(F)c5nc(C)n(C(C)C)c5c4)n3)nc2)CC1 + CC(Nc1ccc2c(c1)OCCn1cc(N3C(=O)OCC3C(F)F)nc1-2)C(N)=O
IC50 (second compound 0.00316 µM): > 1 µM
IC50 (second compound 0.01 µM): > 1 µM
IC50 (second compound 0.0316 µM): > 1 µM
IC50 (second compound 0.1 µM): > 1 µM
IC50 (second compound 0.316 µM): > 1 µM
IC50 (second compound 1 µM): 0.452 µM
viability, T/C (second compound 0.00316 µM, first compound 0.00316 µM): 95.5%
viability, T/C (second compound 0.00316 µM, first compound 0.01 µM): 99.3%
viability, T/C [1]: 102%
viability, T/C [2]: 108%
viability, T/C [3]: 99.3%
viability, T/C [4]: 80.8%
viability, T/C (second compound 0.01 µM, first compound 0.00316 µM): 108%
viability, T/C (second compound 0.01 µM, first compound 0.01 µM): 96.7%
viability, T/C [7]: 99.2%
viability, T/C [8]: 91.5%
viability, T/C [9]: 93.4%
viability, T/C [10]: 80.7%
viability, T/C (second compound 0.0316 µM, first compound 0.00316 µM): 105%
viability, T/C (second compound 0.0316 µM, first compound 0.01 µM): 101%
viability, T/C [13]: 95.2%
viability, T/C [14]: 85.2%
viability, T/C [15]: 86%
viability, T/C [16]: 70.2%
viability, T/C (second compound 0.1 µM, first compound 0.00316 µM): 92.8%
viability, T/C (second compound 0.1 µM, first compound 0.01 µM): 97.8%
viability, T/C [19]: 94.1%
viability, T/C [20]: 79.7%
viability, T/C [21]: 69.7%
viability, T/C [22]: 60.9%
viability, T/C (second compound 0.316 µM, first compound 0.00316 µM): 80.4%
viability, T/C (second compound 0.316 µM, first compound 0.01 µM): 84.5%
viability, T/C [25]: 79%
viability, T/C [26]: 70.4%
viability, T/C [27]: 62.5%
viability, T/C [28]: 51.6%
viability, T/C (second compound 1 µM, first compound 0.00316 µM): 86.7%
viability, T/C (second compound 1 µM, first compound 0.01 µM): 79.4%
viability, T/C [31]: 65.7%
viability, T/C [32]: 59.2%
viability, T/C [33]: 52%
viability, T/C [34]: 46.3%

Cn1ncc(Cl)c1-c1cc(C(=O)NC(CN)Cc2cccc(F)c2)sc1Cl (stereo not drawn) + CC(Nc1ccc2c(c1)OCCn1cc(N3C(=O)OCC3C(F)F)nc1-2)C(N)=O
IC50 (second compound 0.00316 µM): 5.16 µM
IC50 (second compound 0.01 µM): 5.26 µM
IC50 (second compound 0.0316 µM): 5.05 µM
IC50 (second compound 0.1 µM): 3.9 µM
IC50 (second compound 0.316 µM): 4.09 µM
IC50 (second compound 1 µM): 3.51 µM
viability, T/C [1]: 94.7%
viability, T/C [2]: 102%
viability, T/C [3]: 85.5%
viability, T/C [4]: 88.3%
viability, T/C [5]: 71.1%
viability, T/C [6]: 22.8%
viability, T/C [7]: 98.3%
viability, T/C [8]: 90.7%
viability, T/C [9]: 91%
viability, T/C [10]: 79.2%
viability, T/C [11]: 70.9%
viability, T/C [12]: 27.6%
viability, T/C [13]: 103%
viability, T/C [14]: 89.2%
viability, T/C [15]: 94.8%
viability, T/C [16]: 86.3%
viability, T/C [17]: 66.1%
viability, T/C [18]: 25.9%
viability, T/C [19]: 110%
viability, T/C [20]: 92.6%
viability, T/C [21]: 92.5%
viability, T/C [22]: 75.1%
viability, T/C [23]: 61.1%
viability, T/C [24]: 20.3%
viability, T/C [25]: 80.8%
viability, T/C [26]: 94.4%
viability, T/C [27]: 76.4%
viability, T/C [28]: 73.2%
viability, T/C [29]: 60.1%
viability, T/C [30]: 20.9%
viability, T/C [31]: 82%
viability, T/C [32]: 70.7%
viability, T/C [33]: 80.7%
viability, T/C [34]: 63.8%
viability, T/C [35]: 54.7%
viability, T/C [36]: 21.4%

Cn1nccc1Nc1nccc(-c2ccn(C(CO)c3ccc(Cl)c(F)c3)c(=O)c2)n1 (stereo not drawn) + CC(Nc1ccc2c(c1)OCCn1cc(N3C(=O)OCC3C(F)F)nc1-2)C(N)=O
IC50 (second compound 0.00316 µM): 8.42 µM
IC50 (second compound 0.01 µM): 3.65 µM
IC50 (second compound 0.0316 µM): 4.15 µM
IC50 (second compound 0.1 µM): 2.89 µM
IC50 (second compound 0.316 µM): 1.74 µM
IC50 (second compound 1 µM): 1.09 µM
viability, T/C [1]: 96.7%
viability, T/C [2]: 98.6%
viability, T/C [3]: 88.6%
viability, T/C [4]: 81.2%
viability, T/C [5]: 64.5%
viability, T/C [6]: 47.4%
viability, T/C [7]: 99%
viability, T/C [8]: 92.4%
viability, T/C [9]: 97.2%
viability, T/C [10]: 79.9%
viability, T/C [11]: 52.3%
viability, T/C [12]: 37.2%
viability, T/C [13]: 99.5%
viability, T/C [14]: 91.5%
viability, T/C [15]: 82.6%
viability, T/C [16]: 74.3%
viability, T/C [17]: 54.4%
viability, T/C [18]: 33.1%
viability, T/C [19]: 102%
viability, T/C [20]: 86.1%
viability, T/C [21]: 86.1%
viability, T/C [22]: 69.8%
viability, T/C [23]: 46.5%
viability, T/C [24]: 25.9%
viability, T/C [25]: 91.7%
viability, T/C [26]: 76.2%
viability, T/C [27]: 73%
viability, T/C [28]: 61.8%
viability, T/C [29]: 38.6%
viability, T/C [30]: 18%
viability, T/C [31]: 72.8%
viability, T/C [32]: 76.5%
viability, T/C [33]: 68.8%
viability, T/C [34]: 51%
viability, T/C [35]: 29.2%
viability, T/C [36]: 17.7%
